Tests used:
[1] = in vitro; details: human
[2] = Phase I, cytochrome P450-mediated human liver microsome metabolism
[3] = Bidirectional Caco2 cell monolayer permeability; details: human
Description: Caco-2 and HEK293 cells were obtained from the American Type Culture Collection (ATCC, Manassas, VA) and grown in culture according to the supplier’s specifications. In some experiments, HEK293 cells were stably transfected with hERG cDNA, and polyclonal cultures were maintained in the presence of 250 µg/ml geneticin (G418).
Bidirectional Caco2 cell monolayer permeability. Caco2 cells (2x10^4/well) were seeded onto apical chambers of a 24-multiwell insert plate and incubated at 37°C in 5% CO2. After 21 d, the transepithelial electrical resistance (TEER) in ohms was read for each insert well as a quality control for monolayer integrity (>900 ohms or 300 ohms cm^2). The cell monolayers were incubated with 400 µL transport buffer on the apical (A) and 1.2 mL on the basolateral (B) sides for 30 min. After preincubation, dosing solution was added to the apical (400 µL, A-to-B, donor) or basolateral sides (1.2 mL, B-to-A, donor) or receiving buffer to the apical (400 µL, B-to-A, receiver) or basolateral sides (1.2 mL, A-to-B, receiver) for 90 min at 37°C in 5% CO2. […] Papp’A>B (nm/s) was calculated with Equation 1.
Papp Efflux Ratio (ER) was calculated with Equation 2.
ER=Papp,B>APapp,A>BEquation 2: […]
Propranolol (high permeability marker, non-P-gp substate) and digoxin (P-gp substrate) were used as controls.

[4] = Gamitrinib pharmacokinetics in rat plasma, single IV dose; assay type: in vivo, Sprague-Dawley rats; details: after IV Gamitrinib 5 mg/kg
Description: Sprague-Dawley rats (n = 3) were administered with a single intravenous (IV) dose of 1 mL Gamitrinib (5 mg/kg) formulated as described above without added microfluidization. Blood samples were collected via lateral tail vein using K2EDTA as an anticoagulant at 0.083, 0.25, 0.5, 1, 2, 4, and 24 h post-dose, chilled on ice, and centrifuged at 5000 rpm for 10 min. Aliquots (0.2 mL) of each plasma sample were stored frozen at −20°C. For analysis, 50 µL aliquots of the study samples were mixed with 50 µL of ACN/H2O (50:50), extracted by protein precipitation using ACN containing the internal standard Gamitrinib-d15 (100 ng/mL), and the aliquots of the supernatant were mixed with deionized water for Gamitrinib determination. Batch samples under analysis included a calibration curve, a matrix blank (blank rat plasma), a reagent blank, a control zero (blank rat plasma spiked with internal standard), and duplicate QC samples at three concentration levels (low, medium, and high) in addition to the study samples. Within each batch, the study samples were bracketed by calibration standards or QC samples. The lowest calibration standard served to evaluate system suitability at the beginning of each batch. […] Overall, the concentration of Gamitrinib was measured in 21 rat plasma samples in 1 analytical batch using LC-MS/MS data acquisition on a Shimadzu Nexera LC system coupled with an AB Sciex Triple Quad 5500 mass spectrometer. Chromatograms were integrated using Analyst 1.6.2 software. A weighted (1/x^2, x = concentration) linear regression was used to generate the calibration curve for Gamitrinib. […] The mean, standard deviation, precision, accuracy, and assay variability were calculated using Microsoft Excel.

[5] = Caco-2, Papp Efflux Ratio (ER), Papp,B>A / Papp,A>B
[6] = Caco-2, Papp, A>B, Caco2 monolayer, apical to basolateral
[7] = Caco-2, Papp, B>A, Caco2 monolayer, basolateral to apical
[8] = Caco-2, Pexact Efflux Ratio, Caco2 monolayer
[9] = Caco-2, Pexact,A>B, Caco2 monolayer
[10] = Caco-2, Pexact,B>A, Caco2 monolayer

## CC(=O)CC(c1ccccc1)c1c(O)c2ccccc2oc1=O (stereo not shown) [warfarin]
[1]
  recovery at 4 h, 2 µg/mL: 88.3 ± 2.9%

## Cc1ncc2n1-c1ccc(Cl)cc1C(c1ccccc1F)=NC2 [Midazolam, reference compound]
[2]; 0.5 µM, human liver microsomes
  elimination rate constant (k): 0.04
  intrinsic clearance (CLint): 3.23 mL/min/g
[2]; human, liver microsomes
  half-life at 0.5 µM: 17 min

## CC(C)NCC(O)COc1cccc2ccccc12 (stereo not shown) [Propranolol]
[3]; [5]
  efflux ratio at 90 min: 0.87
[3]; [6]
  Papp A→B at 90 min: 18.6 ×10⁻⁶ cm/s
[3]; [7]
  Papp B→A at 90 min: 16.2 ×10⁻⁶ cm/s
[3]; [8]
  efflux ratio at 90 min: 0.81
[3]; [9]
  Papp A→B at 90 min: 20.9 ×10⁻⁶ cm/s
[3]; [10]
  Papp B→A at 90 min: 17 ×10⁻⁶ cm/s

## C[C@H]1O[C@@H](O[C@H]2[C@@H](O)C[C@H](O[C@H]3[C@@H](O)C[C@H](O[C@H]4CC[C@@]5(C)[C@H](CC[C@@H]6[C@@H]5C[C@@H](O)[C@]5(C)[C@@H](C7=CC(=O)OC7)CC[C@]65O)C4)O[C@@H]3C)O[C@@H]2C)C[C@H](O)[C@@H]1O [Digoxin]
[3]; [5]
  efflux ratio at 90 min: 21
[3]; [6]
  Papp A→B at 90 min: 0.547 ×10⁻⁶ cm/s
[3]; [7]
  Papp B→A at 90 min: 11.5 ×10⁻⁶ cm/s
[3]; [8]
  efflux ratio at 90 min: 21.2
[3]; [9]
  Papp A→B at 90 min: 0.413 ×10⁻⁶ cm/s
[3]; [10]
  Papp B→A at 90 min: 8.76 ×10⁻⁶ cm/s

## CO[C@H]1/C=C\C=C(/C)C(=O)NC2=CC(=O)C(N)=C(C[C@@H](C)C[C@H](OC)[C@H](O)[C@@H](C)/C=C(\C)[C@@H]1OC(N)=O)C2=O [17-AG, 17-(amino)-17-demethoxygeldanamycin]
[4]; animal 1, 5 min
  17-AG plasma concentration: BLOQ
[4]; animal 1, 15 min
  17-AG plasma concentration: 0.561 ng/mL
[4]; animal 1, 30 min
  17-AG plasma concentration: BLOQ
[4]; animal 1, 60 min
  17-AG plasma concentration: BLOQ
[4]; animal 1, 120 min
  17-AG plasma concentration: BLOQ
[4]; animal 1, 240 min
  17-AG plasma concentration: BLOQ
[4]; animal 1, 1440 min
  17-AG plasma concentration: BLOQ
[4]; animal 2, 5 min
  17-AG plasma concentration: 1.519 ng/mL
[4]; animal 2, 15 min
  17-AG plasma concentration: BLOQ
[4]; animal 2, 30 min
  17-AG plasma concentration: BLOQ
[4]; animal 2, 60 min
  17-AG plasma concentration: BLOQ
[4]; animal 2, 120 min
  17-AG plasma concentration: BLOQ
[4]; animal 2, 240 min
  17-AG plasma concentration: BLOQ
[4]; animal 2, 1440 min
  17-AG plasma concentration: BLOQ
[4]; animal 3, 5 min
  17-AG plasma concentration: 1.113 ng/mL
[4]; animal 3, 15 min
  17-AG plasma concentration: BLOQ
[4]; animal 3, 30 min
  17-AG plasma concentration: BLOQ
[4]; animal 3, 60 min
  17-AG plasma concentration: BLOQ
[4]; animal 3, 120 min
  17-AG plasma concentration: BLOQ
[4]; animal 3, 240 min
  17-AG plasma concentration: BLOQ
[4]; animal 3, 1440 min
  17-AG plasma concentration: BLOQ
